Paper PMC12005989, “Purification, identification, and in silico screening of a multifunctional octapeptide from semen armeniacae glutelin-2 hydrolysates: restraining mechanisms to Keap1 and ACE, stability, and ferrous-transport efficiency” (Frontiers in Nutrition, 2025)
Read-outs that look alike come from different tables or passages of the source. Ends that are not written are not given here.

Assays:
ACE = tested on: ACE; parameters: method as in 2 sources, ref 34 = [34]; doi:10.1016/j.fbio.2023.103419; 34. Zheng Y Ma J Guo Y Zhuang Y Yang Z Zhu Z . In silico screening and characterization, inhibition mechanism on ACE, and stability of antihypertensive peptides with Zn-chelating capacity identified f ||| ref 45 = [45]; PMID 38470110; doi:10.1021/acs.jafc.4c00829; 45. Martineau-Côté D Achouri A Karboune S L’Hocine L . Antioxidant and angiotensin-converting enzyme inhibitory activity of Faba bean-derived peptides after in vitro gastrointestinal digestion: insigh; settings: read-out: ACE-inhibitory IC50, cited from earlier work
[1] = cited from earlier work
Excerpt: The Asp., Val, Tyr, Phe, and Gly in […] can effectively bind to ferrous ions ([16], [20]). The γ-carboxyl group in Asp and phenolic hydroxyl groups in Tyr and Phe can form ionic bond with ferrous ions ([17]). Ascribed to the excellent metal ion-chelating capacity, Gly is an ideal ingredient for iron or calcium supplement ([45]). In addition, the carbo ...

[2] = biological target: T1, angiotensin-I-converting enzyme (ACE) (Oryctolagus cuniculus, UniProt P12822); assay: ACE restraining capacity, hippuric acid method; assay type: biochemical, Rabbit; settings: substrate HHL, absorbance 228 nm, IC50 from regression of inhibition against concentration, tests in triplicate, read-out: ACE-inhibitory activity (IC50)
T1 construct: Rabbit lungs ACE (0.1 U) was obtained from Sigma-Aldrich (St. Louis, MO, USA); purchased Sigma-Aldrich (St. Louis, MO, USA); host or cells: rabbit lung (tissue-derived)
T1 sequence (P12822 34-1310): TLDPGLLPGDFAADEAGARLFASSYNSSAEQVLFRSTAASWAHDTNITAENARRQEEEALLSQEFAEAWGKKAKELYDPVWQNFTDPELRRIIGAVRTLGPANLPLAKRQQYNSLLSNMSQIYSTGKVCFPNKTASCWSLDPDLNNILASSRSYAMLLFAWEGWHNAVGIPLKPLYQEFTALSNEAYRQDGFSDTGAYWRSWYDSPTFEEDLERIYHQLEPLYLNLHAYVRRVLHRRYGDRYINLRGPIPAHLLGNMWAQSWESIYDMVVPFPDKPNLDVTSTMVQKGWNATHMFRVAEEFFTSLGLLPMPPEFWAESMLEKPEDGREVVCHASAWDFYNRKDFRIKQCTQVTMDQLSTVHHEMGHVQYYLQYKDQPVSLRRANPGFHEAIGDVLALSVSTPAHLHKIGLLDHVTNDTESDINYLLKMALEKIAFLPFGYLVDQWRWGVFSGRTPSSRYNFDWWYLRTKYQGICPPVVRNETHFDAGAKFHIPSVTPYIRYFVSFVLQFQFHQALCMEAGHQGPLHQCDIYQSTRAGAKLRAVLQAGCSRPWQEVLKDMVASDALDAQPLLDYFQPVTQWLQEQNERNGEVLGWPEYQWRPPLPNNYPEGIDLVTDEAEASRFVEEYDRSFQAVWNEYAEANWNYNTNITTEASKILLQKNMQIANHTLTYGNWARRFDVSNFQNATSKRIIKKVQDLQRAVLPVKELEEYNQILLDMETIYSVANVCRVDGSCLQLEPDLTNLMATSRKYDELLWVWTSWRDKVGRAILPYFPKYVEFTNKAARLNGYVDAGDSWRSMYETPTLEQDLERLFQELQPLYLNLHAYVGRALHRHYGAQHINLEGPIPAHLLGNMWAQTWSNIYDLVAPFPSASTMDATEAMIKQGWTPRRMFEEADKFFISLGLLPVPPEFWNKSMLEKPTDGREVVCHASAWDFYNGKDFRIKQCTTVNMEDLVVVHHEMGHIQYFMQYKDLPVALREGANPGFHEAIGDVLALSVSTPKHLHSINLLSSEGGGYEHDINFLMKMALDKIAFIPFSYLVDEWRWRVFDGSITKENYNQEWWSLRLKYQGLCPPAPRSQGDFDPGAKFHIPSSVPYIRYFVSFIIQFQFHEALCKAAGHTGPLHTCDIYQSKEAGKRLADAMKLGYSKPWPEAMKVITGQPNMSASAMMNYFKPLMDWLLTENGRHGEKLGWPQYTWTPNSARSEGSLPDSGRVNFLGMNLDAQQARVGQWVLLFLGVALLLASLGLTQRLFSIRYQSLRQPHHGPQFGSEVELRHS

[3] = biological target: T1, angiotensin-I-converting enzyme (ACE); assay: ACE-inhibitory kinetics, Lineweaver–Burk plot; assay type: biochemical, Rabbit; settings: inhibitor 0.011–0.055 mmol/L, HHL 0.13–1.32 mmol/L, Vmax not altered, Km increased
Excerpt: The hippuric acid method ([50]) was used to measure the samples’ restraining capacity against ACE citing the same procedures from Zheng et al. ([34]). The absorbance of the reaction solution at 228 nm was the hippuric acid content and was proportional to ACE activity; therefore, the restraining capacity of samples toward ACE was defined as the percentage reduction in the absorption at 228 nm between the control and sample groups. In addition, the ACE-inhibitory kinetic by BAG-2H peptides (0.011–0.055 mmol/L) was investigated employing Lineweaver–Burk plot ([36]).

[4] = Ferric reducing ability, Prussian blue method; settings: 100 μg/mL, pH 6.8 phosphate buffer, determined at 700 nm, mean ± SD, triplicate
Procedure: Ferric reducing ability was defined as the ability of antioxidants to provide protons, which was administrated according to the Prussian blue method ([2]). A total 1 mL of BAG-2H peptide solution (100 μg/mL, dissolved in 0.2 mol/L of phosphate buffer, pH 6.8) was reacted with potassium ferricyanide (10 mg/mL, 4 mL) in the EDZF-C002 thermostatic vibrator (50°C, 220 rpm) for 30 min. The reaction solution was cooled to 25 ± 1°C and precipitated using an equal volume of 100 mg/mL trichloroacetic acid for 10 min. Then, the reaction solution was centrifuged at 3000 × g for 25 min, and 1 mL of the upper solution was pipetted and reacted with 1 mg/mL of FeCl3 (1.2 mL) to produce Prussian blue (potassium ferrocyanide). The concentration of potassium ferrocyanide produced was positively correlated with the ferric reducing ability of the sample ([37]), which was determined at 700 nm using a HD-UV90 ultraviolet–visible spectrophotometer (Holder Technology Co. LTD, Weifang, China).
As described by Wu et al. ([41]), the simulative gastric digestive fluid consisted of sodium chloride (0.18 mol/L), ultrapure water (180 mL), and 0.40 mg/mL of pepsin. […] The ACE inhibition capacity and antioxidant ability of the treated BAG-2H peptides were detected and compared to those of the undigested BAG-2H peptides.

[5] = ABTS+ radical quenching, potassium persulfate method; settings: 100 μg/mL; mean ± SD, triplicate
Procedure: (§1) The free radical quenching ability of samples, including superoxide, 2,2′-hydrazine-bis (3-ethylbenzothiazolin-6-sulfonic acid) diamine salt cation (ABTS^+), and hydroxyl radicals, was determined using the pyrogallol auto-oxidation, potassium persulfate, and β-deoxyribose oxidation methods, according to the same procedures from Tyagi et al. ([6]), Lin et al. ([2]), and Wang et al. ([35]), respectively. Comparison was conducted when the samples were replaced by glutathione (0.1 mg/mL).
As described by Wu et al. ([41]), the simulative gastric digestive fluid consisted of sodium chloride (0.18 mol/L), ultrapure water (180 mL), and 0.40 mg/mL of pepsin. The simulation intestinal digestive juice was composed of NaHCO3 (0.625 g/mL), bile salt (3 g/100 mL), pancreatin (0.35 mg/mL), and 180 mL ultrapure water. In a glass triangle flask, 300 mg of the antihypertensive and antioxidant BAG-2H peptides, 60 mL of ultrapure water, and 150 mL of the simulative gastric fluid were mixed thoroughly. The flask was placed at 37°C in an EDZF-C002 thermostatic vibrator with shaking rate of 140 rpm. After 90 min, 180 mL of the simulative intestinal hydrolysis fluid was added and stirred at 37°C for 2 h. […] The ACE inhibition capacity and antioxidant ability of the treated BAG-2H peptides were detected and compared to those of the undigested BAG-2H peptides.

[6] = Hydroxyl radical quenching, β-deoxyribose oxidation method; settings: 100 μg/mL, mean ± SD, triplicate
Procedure: Next, the purification of BAG-2H is a two-step process: first, BAG-2H solution (1 g/L) was subjected to ultra-filtration on an ultra-membrane (filter aperture of 220 nm, Jingfei Membrane Equipment Factory, Luzhou, China). Next, the ultra-filtrate solution (2 mL) was chromatographically purified citing the modified procedures from Li et al. ([30]). Pre-balanced G-15 gel was loaded into a HS-MG-125 chromatographic column (Huasheng Chromatography Tech. Co., Ltd., Wuxi, China). After the BAG-2H ultra-filtrate solution has completely sunk into the column plane, the gel chromatographic column was sealed and eluted using dH2O with a constant velocity of 2.4 mL/min and monitor wavelength of 220 nm. An automatic collector (BT-160I, Thirdli Collection Equipment Co., Ltd., Guangzhou, China) was used to collect the elution, and the collection tube was changed every 5 min ([34]). After 400 min, the profiles of absorbance at 220 nm against elution time were drawn, and the separation fractions were freeze-dried using the EHI-220D lyophilizer. The ACE-inhibitory, ferrous-binding, and hydroxyl radical quenching abilities of the separation fractions were detected citing the hippuric acid ([50]), […]. During screening of the separation fractions, ACE-inhibitory and hydroxyl radical quenching abilities were the primary indexes, and the amino acid sequences of the selected fraction were analyzed.
as §1, with “Comparison was conducted when the samples were replaced by glutathione (0.1 mg/mL).” left out
Physicochemical properties and functionalities of BAG-2H peptides, including antihypertension and antioxidant activity, were in silico analyzed with the AHTpin^2 and Peptide Ranker server^3 databases ([39]), respectively. […]

[7] = Superoxide radical quenching, pyrogallol auto-oxidation method; settings: 100 μg/mL, mean ± SD, triplicate
Procedure: as §1
(§2) As described by Wu et al. ([41]), the simulative gastric digestive fluid consisted of sodium chloride (0.18 mol/L), ultrapure water (180 mL), and 0.40 mg/mL of pepsin. The simulation intestinal digestive juice was composed of NaHCO3 (0.625 g/mL), bile salt (3 g/100 mL), pancreatin (0.35 mg/mL), and 180 mL ultrapure water. In a glass triangle flask, 300 mg of the antihypertensive and antioxidant BAG-2H peptides, 60 mL of ultrapure water, and 150 mL of the simulative gastric fluid were mixed thoroughly. The flask was placed at 37°C in an EDZF-C002 thermostatic vibrator with shaking rate of 140 rpm. After 90 min, 180 mL of the simulative intestinal hydrolysis fluid was added and stirred at 37°C for 2 h. To stop the hydrolysis, the digestion solution in the flask was boiled for 6 min and then cooled by running water to room temperature. The ACE inhibition capacity and antioxidant ability of the treated BAG-2H peptides were detected and compared to those of the undigested BAG-2H peptides.

Caco-2 cell monolayers = assay: Ferrous transport across Caco-2 cell monolayers; assay type: in vitro ADME; settings: Caco-2 transwell, apical to basolateral, chelate 320 μg/mL, 37°C, o-phenanthroline, p < 0.05
Procedure: In a 24-well transwell culture plate, Caco-2 cells (0.75 × 10^6 cells/cm^2) were cultivated by Dulbecco’s modified Eagle’s medium that contained fetal bovine serum (20 g/L), streptomycin (1 μg/μL), penicillin (1 μg/μL), and neomycin (1 μg/μL) and refreshed every 48 h. After 12–14 d of incubation at 5% CO2 and 37°C, the transepithelial electrical resistance was more than 400 Ω·cm^2 and a monolayer Caco-2 cell mode was formed. Afterward, the medium was removed, and Hank’s Balanced Salt Solution was added. After 30 min of cultivation at 5% CO2 and 37°C, Hank’s Balanced Salt Solution was removed from the apical side and BAG-2H peptide-ferrous chelates (320 μg/mL) were added and then cultivated at 5% CO2 and 37°C for 150 min. Every 30 min, the o-phenanthroline method was used to quantify the ferrous amounts of cultivate solution in the basolateral side ([38]).

[8] = Gastrointestinal stability of peptide (simulated gastric and intestinal digestion); assay type: in vitro ADME; settings: simulated gastric fluid (pepsin 0.40 mg/mL) 90 min, then intestinal fluid (pancreatin, bile salt) 2 h, 37°C; read-out retained activity; p > 0.05
Procedure: as §2

[9] = Ferrous solubility of ferrous chelate during simulated gastrointestinal digestion; assay type: in vitro ADME; settings: soluble ferrous by o-phenanthroline every 30 min
Procedure: Next, the intestinal digestive fluid was added, and the digestion was continued at pH 6.8 for 2 h in the EDZF-C002 thermostatic vibrator ([…], 175 rpm).

## GCHHY
ACE; peptide from millet bran glutelin-2
  IC50: 147 µM

## VIPTEPPHA
ACE; peptide from Faba beans
  IC50: 260 µM

## FEDPEFE [scallop skirts peptide]
[1]; scallop skirts peptide
  Ferrous chelating ability: 9.39 mg/g

## PVDFAGFY-ferrous chelate: ferrous chelate of PVDFAGFY prepared with ferrous chloride (also: ferrous chelate)
[2]
  IC50: 101 µM
[3]
  ACE-inhibitory mode: competitive ACE inhibitor
[4]; the values are: absorbance at 700 nm
  Ferric reducing ability, before gastrointestinal: 0.225 ± 0.012
[5]
  ABTS+ scavenging activity, before gastrointestinal: 35.18% ± 1.16%c
[6]
  ·OH scavenging activity, before gastrointestinal: 79.37%
[6]; listed as PVDFAGFY-Fe
  ·OH scavenging activity, before gastrointestinal: 79.37% ± 4.21%b
[7]
  Superoxide radical scavenging ability, before gastrointestinal: 69.55%
[7]; listed as PVDFAGFY-Fe
  Superoxide radical scavenging ability, before gastrointestinal: 69.55% ± 3.41%b
Caco-2 cell monolayers; FeCl2 0.3 mg/mL, HBSS, 150 min
  Ferrous transmembrane absorption across Caco-2 monolayer compared with ferrous chloride: higher than that of ferrous chloride
Caco-2 cell monolayers; ferrous lactate 0.3 mg/mL
  Ferrous transport across Caco-2 monolayer compared with ferrous lactate, 120–150 min: better at transporting iron across the monolayer of Caco-2 cells than ferrous lactate

## SELE [millet bran globulin peptide]
[1]; millet bran globulin peptide
  Ferrous chelating ability: 7.93 mg/g

## PVDFAGFY
[8]
  Stability of antioxidant activity and ACE-inhibitory capacity during gastrointestinal digestion: stable during gastrointestinal digestion

## [Cl][Fe][Cl] [ferrous chloride]
[9]; simulated gastric fluid with pepsin, pH 1.9, 37°C, 175 rpm
  Ferrous solubility during gastric digestion (0–90 min): relatively stable
[9]; simulated intestinal fluid, pH 6.8, 37°C
  Ferrous solubility during intestinal digestion (91–180 min): apparently decreased

## N[C@@H](CCC(=O)N[C@@H](CS)C(=O)NCC(=O)O)C(=O)O [Glutathione, glutathione, reference compound]
[4]
  Ferric reducing ability, before gastrointestinal: 0.675 ± 0.019a
[5]
  ABTS+ scavenging activity, before gastrointestinal: 79.25 ± 1.67%a
[6]
  ·OH scavenging activity, before gastrointestinal: 95.56% ± 1.38%a
[7]
  Superoxide radical scavenging ability, before gastrointestinal: 90.52% ± 4.97%a
